Measured values as given in patent publication US6696482B2, “Formulations for hydrophobic pharmaceutical agents” (Sugen, Inc., priority 1997, dated 2004).
In brackets after ≈: the same amount, converted by molar mass. Read-outs that look alike come from different tables or passages of the source.

How the values were obtained:
[1] = Log of ratio of octanol to water solubility (individually determined); format: physicochemical; settings: solubilities individually determined
From the text: (§1) The indolinone-based compound is a planar aromatic compound and is non-ionizable in the pharmaceutically acceptable range.

[2] = Solubility of the indolinone-based compound in water and excipients; format: physicochemical
Description: An increase in the indolinone-based compound's aqueous solubility in hydrotropic solute solutions like nicotinamide and pyridoxine hydrochloride was observed. It is soluble (15-20 mg/mL) in polar excipients like polyethylene glycols of 300 and 400 MW.
as §1

[3] = tested on: VEGF-induced endothelial cell growth; test: Inhibition of VEGF-induced endothelial cell growth; format: cell-based; settings: in words
Description: Indolinone-based compounds of the invention have been tested for their ability to activate or inhibit protein kinases in biological assays. The methods used to measure indolinone-based compound modulation of protein kinase function are described in U.S. application Ser. No. 08/702,282, filed Aug. 23, 1996, incorporated herein by reference in its entirety, a including any drawings. In particular, indolinone-based compounds of the invention were tested for their ability to inhibit the FLK protein kinase.

melting point | Compound | also measured
224 to 225 °C (dec.) | CN(C)c1cccc(Oc2cccc3nc(N)nc(N)c23)c1 [Procedure B 3, 2,4-Diamino-5-(3-dimethylaminophenoxy)quinazoline] | –
301 to 302 °C | COc1ccc(Oc2cccc3nc(N)nc(N)c23)cc1OC [Procedure B 2, 2,4-Diamino-5-(3,4-dimethoxyphenoxy)quinazoline] | –
188 to 190 °C | Nc1ncnc2cccc(Oc3ccc(F)cc3)c12 [Similar synthetic processes 1, 4-Amino-5-(4-fluorophenoxy)quinazoline] | –
226 to 228 °C | CC(C)(C)c1ccc(Oc2cccc3nc(N)nc(N)c23)cc1 [Procedure B 1, 2,4-Diamino-5-(4-tert-butylphenoxy)quinazoline] | –
192 to 195 °C | COc1ccc(Oc2cccc3ncnc(N)c23)cc1 [Procedure C 1, 4-Amino-5-(4-methoxyphenoxy)quinazoline] | –
179 to 181 °C | CN(C)c1cccc(Oc2cccc3ncnc(N)c23)c1 [Procedure C 2, 4-Amino-5-(3-dimethylaminophenoxy)quinazoline] | –
301 to 303 °C | Nc1nc(N)c2c(Oc3ccccc3F)cccc2n1 [Procedure B 4, 2,4-Diamino-5-(2-fluorophenoxy)quinazoline] | –
245 to 247 °C | Nc1ncnc2cccc(Oc3cccnc3)c12 [Procedure C 3, 4-Amino-5-(3-pyridinoxy)quinazoline] | –
170 to 171 °C | Nc1ncnc2cccc(Oc3ccc(OCc4ccccc4)cc3)c12 [Procedure C 4, 4-Amino-5-(4-benzyloxyphenoxy)quinazoline] | –
201 to 203 °C | Nc1ncnc2cccc(Oc3ccc4c(c3)OCO4)c12 [Procedure C 5, 4-Amino-5-(3,4-methylenedioxyphenoxy) quinazoline] | –
– | Cc1cc(C)c(C=C2C(=O)Nc3ccccc32)[nH]1 [3-[(2,4-dimethylpyrrol-5-yl)methylene]-2-indolinone] | log of ratio of octanol to water solubility [1]: 5.6; influence of pH of the aqueous media on aqueous solubility [2]: did not influence; solubility ([2]; aromatic solvents like benzyl alcohol, organic solvent or mixture, read-out: solubility in aromatic solvents): 10 to 15 mg/mL (≈ 42 to 62.9 mM); aqueous solubility in hydrotropic solute solutions ([2]; hydrotropic solute solutions like nicotinamide and pyridoxine hydrochloride): increase; solubility in water, water miscible non-aqueous solvents, and oils ([2]; in words): low solubility; solubility ([2]; polyethylene glycols of 300 and 400 MW, organic solvent or mixture, read-out: solubility in polar excipients): 15 to 20 mg/mL (≈ 62.9 to 83.9 mM); solubility ([2]; polyglycolized lipids like LABPASOL and GELUCIRE, oil or lipid, read-out: solubility in polyglycolized lipids): 25 to 30 mg/mL (≈ 105 to 126 mM); solubility ([2]; water, read-out: solubility in water): 1e-05 mg/mL (≈ 4.2e-05 mM); inhibition of VEGF-induced endothelial cell growth [3]: specific and potent inhibitor
175 to 177 °C | Nc1nc(N)c2c(Oc3ccc(OCc4ccccc4)cc3)cccc2n1 [Procedure B 8, 2,4-Diamino-5-(4-benzyloxyphenoxy)quinazoline] | –
208 to 209 °C (dec.) | COc1ccccc1Oc1cccc2nc(N)nc(N)c12 [Procedure B 6, 2,4-Diamino-5-(2-methoxyphenoxy)quinazoline] | –
193 to 195 °C | CN(C)CCCOc1cccc2nc(N)nc(N)c12 [Procedure B 9, 2,4-Diamino-5-(3-dimethylaminopropoxy)quinazoline] | –
292 to 295 °C | Nc1nc(N)c2c(Oc3cccc(Br)c3)cccc2n1 [Procedure B 5, 2,4-Diamino-5-(3-bromophenoxy)quinazoline] | –
248 to 250 °C | Nc1nc(N)c2c(-n3cccc3)cccc2n1 [Procedure D 4, 2,4-Diamino-5-(pyrrol-1-yl)quinazoline] | –
